From patent US12129241B1, “9-(2-hydroxypyridin-3-yl)-10-(2-hydroxyethyl)-3,3,6,6-tetramethyl-3,4,6,7,9,10-hexahydroacridine1,8(2H,5H)-dione as an antimicrobial compound” (KING FAISAL UNIVERSITY, priority 2023, dated 2024)

What was measured:
Assay in all cases: Antimicrobial screening by agar dilution
Format in all cases: cell-based
Conditions in all cases: after 10, 20, 40 and 60 minutes at all dilutions 1:100, 1:200, 1:400, 1:800
Candida albicans = system: Candida albicans
Experimental: (§1) The antibacterial properties of the synthesized compound 9-(2-hydroxypyridin-3-yl)-10-(2-hydroxyethyl)-3,3,6,6-tetramethyl-3,4,6,7,9,10-hexahydroacridine1,8(2H,5H)-dione were studied by the method of agar dilution. Test solutions of each compound was prepared in concentration of 1% using dimethylformamide as a solvent then they are diluted in physiological solution to obtain the final experimental dilutions 1:100, 1:200, 1:400, 1:800. The effect of these substances are compared with furacillin in a controllable study. The testing microbes used were gram positive bacteria Staphylococcus aureus, gram negative bacteria Pseudomonas aeruginosa and Escherichia coli and Candida albicans fungus. The experiments used for this survey were meat-pentonlu agar (EPA) for cultivation of bacteria and Saburo environment for the fungus. Each experiment used 1 mL of test solution on each plate […]. Two drops of emulsified with microbes feel were added. All experimental samples were taken from the agar after 10, 20, 40, 60 minutes in the environment on the basis of Patrk planted. The bacteria were cultivated at a temperature of 37° C. for 1 day and the mushroom was kept in a thermostat for […] at a temperature of 28° C. Then results were checked.

Escherichia coli = system: Escherichia coli
Experimental: as §1

Pseudomonas aeruginosa = system: Pseudomonas aeruginosa
Experimental: as §1

Staphylococcus aureus = system: Staphylococcus aureus
Experimental: as §1

Measured: inhibition activity

CC1(C)CC(=O)C2=C(C1)N(CCO)C1=C(C(=O)CC(C)(C)C1)C2c1cccnc1O [9-(2-hydroxypyridin-3-yl)-10-(2-hydroxyethyl)-3,3,6,6-tetramethyl-3,4,6,7,9,10-hexahydroacridine1,8(2H,5H)-dione]
highest inhibition activity: all assays above
